Experimental data: PubChem BioAssay AID248 (DTP/NCI, 2004)
“And” between values parts separate entries of the source, which are not always exact repeats. Equal values may be shown once. Toxic doses and inconclusive results are not listed. Rule as the data show it: active = T/C of 150% or more; inactive = T/C below 125%.

System: L1210 leukemia ip in BDF1 mice, survival T/C
Assay: NCI In Vivo Anticancer Drug Screen. Data for tumor model L1210 Leukemia (intraperitoneal) in B6D2F1 (BDF1) mice
Settings: endpoint: mean survival time, higher = longer survival
Method in brief: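 Tumor was transplanted into mice, which were then dosed with test compound or vehicle alone. Survival was recorded for each group, and the treated figure was expressed relative to the control figure.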

[1] = dose: 100.0 mg/kg/injection, schedule: Q01DX009 (ip), vehicle: saline
[2] = dose: 200.0 mg/kg/injection, schedule: Q01DX009 (ip), vehicle: saline
[3] = dose: 400.0 mg/kg/injection, schedule: Q01DX009 (ip), vehicle: saline
[4] = dose: 100.0 mg/kg/injection, schedule: Q01DX009 (ip), vehicle: Klucel (hydroxypropylcellulose) (HPC)
[5] = dose: 200.0 mg/kg/injection, schedule: Q01DX009 (ip), vehicle: Klucel (hydroxypropylcellulose) (HPC)
[6] = dose: 400.0 mg/kg/injection, schedule: Q01DX009 (ip), vehicle: Klucel (hydroxypropylcellulose) (HPC)
[7] = dose: 100.0 mg/kg/injection, schedule: Q01DX009 (ip), vehicle: saline with Tween-80
[8] = dose: 100.0 mg/kg/injection, schedule: Q04DX003 (ip), vehicle: saline
[9] = dose: 200.0 mg/kg/injection, schedule: Q04DX003 (ip), vehicle: saline
[10] = dose: 400.0 mg/kg/injection, schedule: Q04DX003 (ip), vehicle: saline
[11] = dose: 100.0 mg/kg/injection, schedule: Q01DX001 (ip), vehicle: saline
[12] = dose: 200.0 mg/kg/injection, schedule: Q01DX001 (ip), vehicle: saline
[13] = dose: 400.0 mg/kg/injection, schedule: Q01DX001 (ip), vehicle: saline
[14] = dose: 100.0 mg/kg/injection, schedule: Q01DX001 (ip), vehicle: other
[15] = dose: 200.0 mg/kg/injection, schedule: Q01DX001 (ip), vehicle: other
[16] = dose: 25.0 mg/kg/injection, schedule: Q01DX009 (ip), vehicle: saline
[17] = dose: 50.0 mg/kg/injection, schedule: Q01DX009 (ip), vehicle: saline
[18] = dose: 100.0 mg/kg/injection, schedule: Q01DX001 (ip), vehicle: carboxymethylcellulose (CMC)
[19] = dose: 200.0 mg/kg/injection, schedule: Q01DX001 (ip), vehicle: carboxymethylcellulose (CMC)
[20] = dose: 400.0 mg/kg/injection, schedule: Q01DX001 (ip), vehicle: carboxymethylcellulose (CMC)

Measured: T/C

CN(CCc1cnc2nc(N)[nH]c(=O)c2n1)c1ccc(C(=O)O)cc1
inactive: dose: 75.0 mg/kg/injection, schedule: Q01DX001 (ip), vehicle: saline 90 % of control | dose: 150.0 mg/kg/injection, schedule: Q01DX001 (ip), vehicle: saline 95 % of control | dose: 300.0 mg/kg/injection, schedule: Q01DX001 (ip), vehicle: saline 94 % of control

COc1cc(Cl)ccc1NC(=O)Oc1ccc(F)cc1
inactive: [1] 123 % of control | [2] 101 % of control | [3] 115 % of control

CCCCC(=O)OC1CC(C)CCC1C(C)C (centres undefined)
inactive: [4] 98 % of control | dose: 100.0 mg/kg/injection, schedule: Q04DX003 (ip), vehicle: Klucel (hydroxypropylcellulose) (HPC) 93 % of control | [5] 106 % of control | dose: 200.0 mg/kg/injection, schedule: Q04DX003 (ip), vehicle: Klucel (hydroxypropylcellulose) (HPC) 96 % of control | [6] 98 % of control | dose: 400.0 mg/kg/injection, schedule: Q04DX003 (ip), vehicle: Klucel (hydroxypropylcellulose) (HPC) 93 % of control

CC1=[N+]([O-])[N+]([O-])=C(c2ccccc2)C1=O
inactive: dose: 100.0 mg/kg/injection, schedule: Q04DX002 (ip), vehicle: Klucel (hydroxypropylcellulose) (HPC) 100 % of control | dose: 200.0 mg/kg/injection, schedule: Q04DX002 (ip), vehicle: Klucel (hydroxypropylcellulose) (HPC) 95 % of control | dose: 400.0 mg/kg/injection, schedule: Q04DX002 (ip), vehicle: Klucel (hydroxypropylcellulose) (HPC) 87 % of control

CCCC(C(=O)O)C(CCC)C(=O)O (centres undefined)
inactive: [7] 92 % of control | dose: 200.0 mg/kg/injection, schedule: Q01DX009 (ip), vehicle: saline with Tween-80 96 % of control

COc1ccc(C(O)S(=O)(=O)O)cc1 (centres undefined)
inactive: [8] 98 % of control | [9] 100 % of control | [10] 100 % of control

NC(=O)Oc1ccccc1
inactive: [11] 98 % of control | [1] 102 % of control | [8] 95 % of control | [12] 98 % of control | [2] 111 % of control | [9] 98 % of control | [13] 96 % of control | [3] 120 % of control | [10] 103 % of control

CCCCCC(C)C1=NC(C)(C)CC(C)O1 (centres undefined)
inactive: dose: 5.0 mg/kg/injection, schedule: Q04DX003 (ip), vehicle: saline with Tween-80 101 % of control | dose: 10.0 mg/kg/injection, schedule: Q04DX003 (ip), vehicle: saline with Tween-80 95 % of control | dose: 20.0 mg/kg/injection, schedule: Q04DX003 (ip), vehicle: saline with Tween-80 108 % of control

O=[N+]([O-])c1ccc(NN=C(C2CC2)C2CC2)c([N+](=O)[O-])c1
inactive: [14] 95 % of control | [15] 98 % of control | dose: 400.0 mg/kg/injection, schedule: Q01DX001 (ip), vehicle: other 88 % of control

CC(C)CCCC(C)C1CCC2C3=CC=C4CC(OC(=O)c5cc([N+](=O)[O-])cc([N+](=O)[O-])c5)CCC4(C)C3CCC21C (centres undefined)
inactive: [14] 88 % of control | [15] 98 % of control

COC(=O)c1cc2ccncc2c2sc3ccccc3c12
inactive: [1] 97 % of control | [8] 90 % of control | [2] 93 % of control | [9] 92 % of control | [3] 95 % of control | [10] 90 % of control

COc1ccc2c(c1)C13CCN(C)C(C2)C1CCC1(C3)OCCO1 (centres undefined)
inactive: dose: 12.5 mg/kg/injection, schedule: Q01DX009 (ip), vehicle: saline 103 % of control | [16] 94 % of control | [17] 97 % of control | [11] 109 % of control | [4] 106 % of control | [8] 105 % of control | [12] 101 % of control | [9] 86 % of control | [13] 95 % of control

Cc1cccc(SC(=O)Nc2cc([N+](=O)[O-])ccc2Cl)c1
inactive: [4] 92 % of control | [5] 98 % of control | [6] 88 % of control

OCc1ccccc1CO
inactive: [18] 95 % of control | [19] 95 % of control | [20] 98 % of control

Oc1cc2c(O)cccc2c2ccccc12
inactive: dose: 100.0 mg/kg/injection, schedule: Q04DX003 (ip), vehicle: saline with Tween-80 92 % of control | dose: 200.0 mg/kg/injection, schedule: Q04DX003 (ip), vehicle: saline with Tween-80 90 % of control

Cc1cc([N+](=O)[O-])ccc1NC(=O)C(Br)C(Br)C(=O)O (centres undefined)
inactive: dose: 25.0 mg/kg/injection, schedule: Q01DX009 (ip), vehicle: other 101 % of control | dose: 50.0 mg/kg/injection, schedule: Q01DX009 (ip), vehicle: other 102 % of control | dose: 100.0 mg/kg/injection, schedule: Q01DX009 (ip), vehicle: other 93 % of control and 94 % of control

c1ccc([C](c2ccccc2)(c2ccccc2)[Ge]([c]2ccccc2)([c]2ccccc2)[c]2ccccc2)cc1
inactive: dose: 12.8 mg/kg/injection, schedule: Q04DX002 (ip), vehicle: saline with Tween-80 93 % of control | dose: 32.0 mg/kg/injection, schedule: Q04DX002 (ip), vehicle: saline with Tween-80 96 % of control | dose: 80.0 mg/kg/injection, schedule: Q04DX002 (ip), vehicle: saline with Tween-80 89 % of control | dose: 200.0 mg/kg/injection, schedule: Q04DX002 (ip), vehicle: saline with Tween-80 89 % of control

O=C1C=CC(=O)C2C3CC(C4OC34)C12 (centres undefined)
inactive: dose: 25.0 mg/kg/injection, schedule: Q01DX009 (ip), vehicle: saline with Tween-80 102 % of control | dose: 50.0 mg/kg/injection, schedule: Q01DX009 (ip), vehicle: saline with Tween-80 94 % of control | [7] 100 % of control and 89 % of control

CCC1C(=O)C=C(C)OC1=O (centres undefined)
inactive: dose: 75.0 mg/kg/injection, schedule: Q01DX009 (ip), vehicle: Klucel (hydroxypropylcellulose) (HPC) 107 % of control | dose: 150.0 mg/kg/injection, schedule: Q01DX009 (ip), vehicle: Klucel (hydroxypropylcellulose) (HPC) 101 % of control | dose: 300.0 mg/kg/injection, schedule: Q01DX009 (ip), vehicle: Klucel (hydroxypropylcellulose) (HPC) 86 % of control

C(#CCN1CCOCC1)CCCN1CCOCC1
inactive: [8] 96 % of control | [9] 95 % of control | [10] 93 % of control

COc1cc2c(cc1OC)C(C)=NCC2
inactive: dose: 12.0 mg/kg/injection, schedule: Q01DX009 (ip), vehicle: saline 103 % of control | [16] 94 % of control | dose: 25.0 mg/kg/injection, schedule: Q04DX003 (ip), vehicle: saline 105 % of control | dose: 50.0 mg/kg/injection, schedule: Q01DX001 (ip), vehicle: saline 114 % of control | [17] 110 % of control | dose: 50.0 mg/kg/injection, schedule: Q04DX003 (ip), vehicle: saline 105 % of control | [11] 104 % of control | [8] 102 % of control

CCCC(=O)NC1CC(OC2CC(O)(C(C)=O)Cc3c(O)c4c(c(O)c32)C(=O)c2c(OC)cccc2C4=O)OC(C)C1O (centres undefined)
inactive: dose: 0.25 mg/kg/injection, schedule: Q01DX009 (ip), vehicle: saline 91 % of control | dose: 0.5 mg/kg/injection, schedule: Q01DX009 (ip), vehicle: saline 96 % of control | dose: 1.0 mg/kg/injection, schedule: Q01DX009 (ip), vehicle: saline 91 % of control | dose: 2.0 mg/kg/injection, schedule: Q01DX009 (ip), vehicle: saline 93 % of control | dose: 4.0 mg/kg/injection, schedule: Q01DX009 (ip), vehicle: saline 96 % of control

O=S1(=O)C2CCCC1C(Cl)CC2 (centres undefined)
inactive: dose: 15.0 mg/kg/injection, schedule: Q01DX001 (ip), vehicle: carboxymethylcellulose (CMC) 100 % of control

CC(=O)OC1CCC2(C)C(=CCC3C2CCC2(C)C3CC3OC4(CCC(C)CO4)C(C)C32)C1 (centres undefined)
inactive: [4] 98 % of control | [5] 96 % of control | [6] 95 % of control

CC(/C=N/Nc1nnc(N/N=C/C(C)=C/c2ccccc2)c2ccccc12)=C\c1ccccc1
inactive: dose: 50.0 mg/kg/injection, schedule: Q01DX001 (ip), vehicle: carboxymethylcellulose (CMC) 94 % of control | [18] 102 % of control | [19] 96 % of control | [20] 112 % of control

Cc1ccc(Nc2cc(=O)[nH]c(N)n2)cc1C
inactive: dose: 100.0 mg/kg/injection, schedule: Q01DX Z (ip), vehicle: methylcellulose (MC) 95 % of control | dose: 200.0 mg/kg/injection, schedule: Q01DX Z (ip), vehicle: methylcellulose (MC) 95 % of control
